Experimental data reported in publication PMC6331910, “The Curcumin Analogue 1,5-Bis(2-hydroxyphenyl)-1,4-pentadiene-3-one Induces Apoptosis and Downregulates E6 and E7 Oncogene Expression in HPV16 and HPV18-Infected Cervical Cancer Cells” (Molecules, 2015).
Read-outs that look alike come from different tables or passages of the source.

Experiments:
CaSki [1] = assay: MTT cell viability (dose-dependent cytotoxicity) assay, 72 h; assay type: cell-based, human; conditions: for Selective Index CaSki: EC50 (MRC9)/EC50 (CaSki) × 100; for EC50: read-out: EC50 (Mean ± S.E.M.) CaSki
Protocol: (§1) Control-treated wells contained cells incubated in media with equal volumes of DMSO (0.2%). […] The media was aspirated and cells were incubated in 100 µL complete medium with 0.5 mg/mL MTT solution for 4 h in the dark to allow metabolism of MTT by cellular mitochondrial dehydrogenases. The excess MTT was aspirated and the formazan crystals formed were dissolved by the addition of 100 µL of DMSO. The absorbance of dark blue formazan was read at 570/650 nm wavelengths using a microplate reader (Bio-Rad Benchmark Plus Microplate Spectrophotometer, Hercules, CA, USA). Triplicate absorbance values were averaged and the effect of the compounds on growth inhibition was assessed as percentage cell viability as follows: […] The results were analysed using GraphPad Prism version 6.00 for Windows (GraphPad Software, La Jolla, CA, USA). […] Overall EC50 was determined by taking the average EC50 from three independent experiments.

HeLa [2] = assay: as above; assay type: cell-based, human; conditions: for Selective Index HeLa: EC50 (MRC9)/EC50 (HeLa) × 100; for EC50: read-out: EC50 (Mean ± S.E.M.) HeLa
Protocol: as §1

MRC9 = assay: MTT cell viability (cytotoxicity) assay on non-cancerous lung fibroblasts, 72 h; assay type: cell-based; conditions: Homo sapiens, read-out: EC50 (Mean ± S.E.M.) MRC9
Protocol: (§2) HeLa, CaSki and MRC9 cells were plated in triplicate wells in 96-well flat-bottomed tissue culture plates (Nunc, Roskilde, Denmark) with 10^5 cells per mL in 100 μL culture media with working concentrations of diarylpentanoid treatment ranging from 1.6 to 100 μM. Control-treated wells contained cells incubated in media with equal volumes of DMSO (0.2%). Cells were treated for 72 h for dose-dependent cytotoxicity assays and at 24, 48 and 72 h for anti-proliferative (time-dependent) assays. In order to assess cell viability and anti-proliferative activity after diarylpentanoid treatment, the colorimetric 3-(4,5-dimethylthiazol-2-yl)-2,5-diphenyltetrazolium bromide (MTT) assay was performed as previously described with modifications. The media was aspirated and cells were incubated in 100 µL complete medium with 0.5 mg/mL MTT solution for 4 h in the dark to allow metabolism of MTT by cellular mitochondrial dehydrogenases. The excess MTT was aspirated and the formazan crystals formed were dissolved by the addition of 100 µL of DMSO. The absorbance of dark blue formazan was read at 570/650 nm wavelengths using a microplate reader (Bio-Rad Benchmark Plus Microplate Spectrophotometer, Hercules, CA, USA). Triplicate absorbance values were averaged and the effect of the compounds on growth inhibition was assessed as percentage cell viability as follows: (1) Percentage cell viability =Absorbance of Test − Absorbance of Blank (media only)/Absorbance of Control − Absorbance of Blank (media only) × 100 where, absorbance = optical density of sample, O.D.; control = untreated sample; test = treated sample.
The results were analysed using GraphPad Prism version 6.00 for Windows (GraphPad Software, La Jolla, CA, USA). Using percentage cell viability Equation (1), log dose–response curves were constructed, from which the half maximal effective concentration, EC50 for each replicate was determined. Overall EC50 was determined by taking the average EC50 from three independent experiments. […] (3) Selectivity Index (SX) =EC50 (MRC9)/EC50 (Cancer cell line) × 100

CaSki [3] = assay: MTT anti-proliferative (time-dependent) assay, 24, 48 and 72 h; assay type: cell-based, human; conditions: for concentration from which a notable decline in cell viability was caused / effect on cell viability: at 24, 48 and 72 h; for cell viability: 6.3–100 μM
Protocol: as §2
(§3) An independent set of vehicle-treated (DMSO only) controls were included in the anti-proliferative assays to assess the proliferation of untreated cancer cells over 24, 48 and 72 h. As such, the cell viability at 24 h was used as a baseline to measure proliferation rate at 48 and 72 h. (2) Percentage cell viability = […]/Absorbance of Control (24 h) × Absorbance of Blank (media only) × 100

HeLa [4] = assay: as above; assay type: cell-based, human; conditions: for concentration from which a notable decline in cell viability was caused / cell growth: at 24, 48 and 72 h; for reduction of cell viability: 12.5 μM and above
Protocol: as §2, §3

[5] = Homo sapiens, Ca-Ski, MTT, 72 h
[6] = MRC9, MTT, 72 h, non-cancerous lung fibroblasts

| SMILES | Selective Index CaSki (CaSki [1]) | EC50 (CaSki [1]; [5]) [µM] | Selective Index HeLa (HeLa [2]) | EC50 (HeLa [2]; Homo sapiens, HeLa, MTT, 72 h) [µM] | EC50 (MRC9; [6]) [µM] | concentration from which a notable decline in cell viability was caused (CaSki [3]) [µM] | concentration from which a notable decline in cell viability was caused (HeLa [4]) [µM] | effect on cell viability (CaSki [3]; 12.5 μM onwards) | cell growth (HeLa [4]; onwards from 25 μM) | other results |
| --- | --- | --- | --- | --- | --- | --- | --- | --- | --- | --- |
| COc1cc(/C=C/C(=O)CC(=O)/C=C/c2ccc(O)c(OC)c2)ccc1O [Curcumin] | 168 | 15.8 ± 3.1 | 100 | 26.7 ± 14.3 | 26.6 ± 3.2 | 25 | 50 |  |  | inhibition at 25 µM (CaSki [1]; Homo sapiens, Ca-Ski, CaSki, 25 μM, 72 h, read-out: growth inhibition): 50%; inhibition at 50 µM (HeLa [2]; Homo sapiens, HeLa, beginning at 50 μM, 72 h, read-out: growth inhibition): ~50%; effect on cell viability (CaSki [3]; from 25 μM onwards): significant decline in cell viability; cell growth (HeLa [4]; onwards from 50 μM): below 50% |
| COc1cc(C=CC(=O)C=Cc2ccc(O)c(OC)c2)ccc1O [MS13, 1,5-bis(4-hydroxy-3-methoxyphenyl)-1,4-pentadiene-3-one] | 346 |  | 145 |  |  |  |  |  |  | decrease in cell growth (CaSki [1]; CaSki, 3.1 μM, 72 h): 50%; cell growth after treatment (CaSki [1]; CaSki, 6.3–100 μM, 72 h): around 10%; EC50 (CaSki [1]; Homo sapiens, Ca-Ski, 72 h): 2.8 ± 0.4 µM; cell viability (HeLa [2]; HeLa, beyond 12.5 μM, 72 h): less than 10%; EC50 (HeLa [2]; Homo sapiens, HeLa, 72 h): 6.7 ± 2.4 µM; viability at 12.5 µM (HeLa [2]; Homo sapiens, HeLa, 12.5 μM, 72 h): ~12%; EC50 (MRC9; MRC9, 72 h): 9.7 ± 2.4 µM; dosage from which reduction in cell viability was significantly higher at 48 and 72 h than at 24 h (CaSki [3]): 6.3 µM; cell viability (CaSki [3]; 48 h): 21%; cell viability (CaSki [3]; 72 h): 9%; viability at 12.5 µM (CaSki [3]; Homo sapiens, Ca-Ski, 12.5 μM, 24 h, read-out: decline of cell viability): ~50%; dosage from which reduction in cell viability was significantly higher at 48 and 72 h than at 24 h (HeLa [4]): 12.5 µM; reduction of cell viability (HeLa [4]; 24 h): 72%; reduction of cell viability (HeLa [4]; 48 h): approximately 91%; reduction of cell viability (HeLa [4]; 72 h): ~95% |
| O=C(C=Cc1cccc(F)c1)C=Cc1cccc(F)c1 [MS40E, 1,5-bis(3-fluorophenyl)-1,4-pentadiene-3-one] | 906 | 3.5 ± 0.4 | 204 | 15.5 ± 1.9 | 31.7 ± 3.2 | 12.5 | 25 | significant decline in cell viability | below 50% | inhibition at 6.3 µM (CaSki [1]; Homo sapiens, Ca-Ski, CaSki, 6.3 μM, 72 h, read-out: growth inhibition): 80%; inhibition at 100 µM (CaSki [1]; Homo sapiens, Ca-Ski, CaSki, 100 μM, 72 h, read-out: growth inhibition): 90%; inhibition at 25 µM (HeLa [2]; Homo sapiens, HeLa, beginning at 25 μM, 72 h, read-out: growth inhibition): ~75% |
| O=C1C(=Cc2cccc(F)c2)CCCC1=Cc1cccc(F)c1 [MS49, 2,6-bis(3-fluorobenzylidene)cyclohexanone] | 273 | 6 ± 2.9 | 199 | 8.3 ± 4.6 | 16.4 ± 4.4 | 12.5 | 25 | significant decline in cell viability | below 50% | cell viability (CaSki [1]; CaSki, 25–100 μM, 72 h): around 10%; viability at 12.5 µM (CaSki [1]; Homo sapiens, Ca-Ski, CaSki, 12.5 μM, 72 h): 20%; inhibition at 12.5 µM (HeLa [2]; Homo sapiens, HeLa, beginning at 12.5 μM, 72 h, read-out: growth inhibition): ~75% |
